One experiment relates to Puccinia triticina. Nature of the experiment: Fungicidal activity: wheat brown rust (PUCCRT), wheat seedlings, booth sprayer to run-off or track spray. Type of experiment: in vivo. The conditions noted are these: for pest or weed control at 100 ppm: High-Volume Cereal Activity at 100 ppm; for pest or weed control at 121.5 g/ha: Low-Volume Cereal Activity at 121.5 g/H. As for the experimental part: All fungicides were evaluated using the aforementioned method for their activity vs. all target diseases. Wheat leaf blotch and brown rust activity were also evaluated using track spray applications, in which case the fungicides were formulated as EC formulations, containing 0.1% Trycol 5941 in the spray solutions. Wheat plants (variety Yuma) were grown from seed in a greenhouse in 50% mineral soil/50% soil-less Metro mix until the first leaf was fully emerged, with 7-10 seedlings per pot. These plants were inoculated with an aqueous spore suspension of Puccinia triticina either prior to or after fungicide treatments. […] The plants were then transferred to a greenhouse set at 24° C. for disease to develop. Fungicide formulation, application and disease assessment followed the procedures as described in the Example A.

A further experiment has as its system Zymoseptoria tritici. Nature of the experiment: Fungicidal activity: leaf blotch of wheat (SEPTTR), wheat seedlings, booth sprayer to run-off or track spray. Type of experiment: in vivo. The conditions noted are these: for pest or weed control at 100 ppm: High-Volume Cereal Activity at 100 ppm; for pest or weed control at 121.5 g/ha: Low-Volume Cereal Activity at 121.5 g/H. As for the experimental part:
All fungicides were evaluated using the aforementioned method for their activity vs. all target diseases. Wheat leaf blotch and brown rust activity were also evaluated using track spray applications, in which case the fungicides were formulated as EC formulations, containing 0.1% Trycol 5941 in the spray solutions. Wheat plants (variety Yuma) were grown from seed in a greenhouse in 50% mineral soil/50% soil-less Metro mix until the first leaf was fully emerged, with 7-10 seedlings per pot. These plants were inoculated with an aqueous spore suspension of Zymoseptoria tritici either prior to or after fungicide treatments. After inoculation the plants were kept in 100% relative humidity (one day in a dark dew chamber followed by two to three days in a lighted dew chamber at 20° C.) to permit spores to germinate and infect the leaf. The plants were then transferred to a greenhouse set at 20° C. for disease to develop. When disease symptoms were fully expressed on the 1st leaves of untreated plants, infection levels were assessed on a scale of 0 to 100 percent disease severity. Percent disease control was calculated using the ratio of disease severity on treated plants relative to untreated plants.

Setting [1] is: 24 h, 1 Day Protectant, read-out: PUCCRT 1DP.
The mark [2] stands for this setting: 24 h, 1 Day Protectant, read-out: SEPTTR 1DP.
[3] abbreviates: 3DC (Day Curative), read-out: SEPTTR 3DC.
Setting [4] is: 72 h, 3 Day Curative, read-out: PUCCRT 3DC.
[5] abbreviates: 3DC (Day Curative), read-out: PUCCRT 3DC.
[6] abbreviates: 72 h, 3 Day Curative, read-out: SEPTTR 3DC.

Results on ten compounds are retold here after patent US10173971B2, “Picolinamides with fungicidal activity” (DOW AGROSCIENCES LLC, priority 2014, dated 2019).

Read-outs that look alike come from different tables or passages of the source.

Regarding `CC[C@H](NC(=O)c1nccc(OC)c1O)C(=O)O[C@@H](C)C(Cc1cccc(OC)c1)Cc1cccc(OC)c1` [compound 153], the pest or weed control at 100 ppm was 80 to 100% in the experiment with Puccinia triticina (setting [1]), 0 to 80% in the experiment with Zymoseptoria tritici (setting [2]) and 0 to 80% in the experiment with Zymoseptoria tritici (setting [3]).

On to `COc1ccc(CC(Cc2ccc(OC)cc2)[C@H](C)OC(=O)[C@H](C)NC(=O)c2nccc(OC)c2O)cc1` [compound 154], for which the pest or weed control at 100 ppm in the experiment on Puccinia triticina (setting [1]) and in the experiment on Zymoseptoria tritici (setting [2]) was 80 to 100% each time.

On to `COc1ccc(C[C@H](COc2ccc(F)cc2F)[C@H](C)OC(=O)[C@H](C)NC(=O)c2nccc(OC)c2O)cc1` [compound 160], for which the pest or weed control at 100 ppm with Puccinia triticina (setting [1]) was in the range of 80 to 100%; in the experiment on Zymoseptoria tritici (setting [2]) it was 0 to 80%.

As to `CCCOC[C@@H](Cc1ccccc1)[C@H](C)OC(=O)[C@H](C)NC(=O)c1nccc(OC)c1OCOC(C)=O` [compound 162], the pest or weed control at 100 ppm in the experiment on Puccinia triticina (setting [1]), in the experiment with Puccinia triticina (setting [5]), in the experiment on Zymoseptoria tritici (setting [2]) and in the experiment with Zymoseptoria tritici (setting [3]) was 80 to 100% throughout. Besides, the pest or weed control at 121.5 g/ha with Puccinia triticina (setting [1]), in the experiment on Puccinia triticina (setting [4]), in the experiment on Zymoseptoria tritici (setting [2]) and with Zymoseptoria tritici (setting [6]) was 80 to 100% throughout.

For `CCCO[C@@H](CC)[C@@H](Cc1ccccc1)[C@H](C)OC(=O)[C@@H](C)NC(=O)c1nccc(OC)c1OCOC(C)=O` [compound 163], the pest or weed control at 100 ppm with Puccinia triticina (setting [1]) fell in the range of 80 to 100%; in the experiment on Puccinia triticina (setting [5]), 80 to 100%; in the experiment with Zymoseptoria tritici (setting [2]), 0 to 80%; in the experiment with Zymoseptoria tritici (setting [3]) it was 0 to 80%.

In the case of `CCCO[C@@H](CC)[C@@H](Cc1ccccc1)[C@H](C)OC(=O)[C@H](CC)NC(=O)c1nccc(OC)c1OCOC(C)=O` [compound 164], the pest or weed control at 100 ppm with Puccinia triticina (setting [1]), in the experiment on Puccinia triticina (setting [5]), with Zymoseptoria tritici (setting [2]) and in the experiment on Zymoseptoria tritici (setting [3]) was 80 to 100% each time. In addition, the pest or weed control at 121.5 g/ha in the experiment with Puccinia triticina (setting [1]) lay within 80 to 100%; in the experiment with Puccinia triticina (setting [4]), 80 to 100%; with Zymoseptoria tritici (setting [2]), 0 to 80%; in the experiment with Zymoseptoria tritici (setting [6]) it was 0 to 80%.

`CCCO[C@H](CC)[C@@H](Cc1ccccc1)[C@H](C)OC(=O)[C@@H](C)NC(=O)c1nccc(OC)c1OCOC(C)=O` [compound 165]: the pest or weed control at 100 ppm was in the range of 0 to 80% with Puccinia triticina (setting [1]), 80 to 100% with Puccinia triticina (setting [5]), 80 to 100% in the experiment on Zymoseptoria tritici (setting [2]) and 0 to 80% in the experiment with Zymoseptoria tritici (setting [3]).

As to `CCCOC[C@@H](Cc1ccccc1)[C@H](C)OC(=O)[C@@H](C)NC(=O)c1nccc(OC)c1OCOC(C)=O` [compound 166], the pest or weed control at 100 ppm with Puccinia triticina (setting [1]) lay in the range of 80 to 100%; with Puccinia triticina (setting [5]), 80 to 100%; in the experiment with Zymoseptoria tritici (setting [2]), 0 to 80%; in the experiment on Zymoseptoria tritici (setting [3]), 0 to 80%.

With `CCCOC[C@@H](Cc1ccccc1)[C@H](C)OC(=O)[C@H](CC)NC(=O)c1nccc(OC)c1OCOC(C)=O` [compound 167], the pest or weed control at 100 ppm in the experiment with Puccinia triticina (setting [1]), with Puccinia triticina (setting [5]), in the experiment on Zymoseptoria tritici (setting [2]) and in the experiment with Zymoseptoria tritici (setting [3]) was 80 to 100% each time. In addition, the pest or weed control at 121.5 g/ha lay in the range of 80 to 100% in the experiment with Puccinia triticina (setting [1]), 80 to 100% in the experiment on Puccinia triticina (setting [4]), 80 to 100% with Zymoseptoria tritici (setting [2]) and 0 to 80% in the experiment on Zymoseptoria tritici (setting [6]).

Take `CCCO[C@@H](CC)[C@@H](Cc1ccccc1)[C@H](C)OC(=O)[C@H](C)NC(=O)c1nccc(OC)c1OCOC(C)=O` [compound 168]: the pest or weed control at 100 ppm in the experiment on Puccinia triticina (setting [1]), with Puccinia triticina (setting [5]), with Zymoseptoria tritici (setting [2]) and in the experiment with Zymoseptoria tritici (setting [3]) was 80 to 100% in each case. For the same compound, the pest or weed control at 121.5 g/ha in the experiment with Puccinia triticina (setting [1]) fell in the range of 80 to 100%; with Puccinia triticina (setting [4]) it was 80 to 100%; in the experiment on Zymoseptoria tritici (setting [2]), 80 to 100%; in the experiment with Zymoseptoria tritici (setting [6]), 0 to 80%.
